Assay results as given in article PMC8684776, “Discovery and characterization of potent And‐1 inhibitors for cancer treatment” (Clinical and Translational Medicine, 2021).

Columns and labels:
[1] = Toxicity evaluation of treated mice (body weight, H&E staining of organs)
Protocol: To this end, we subcutaneously implanted IGROV1 or MCF7 cells into nude mice to form ovarian or breast tumors, respectively. The mice with these tumors were then treated with vehicle, 20 mg/kg or 40 mg/kg of CH3 via intraperitoneal injection.
To assess the efficacy of the combination of And‐1 inhibitors and cisplatin in vivo, we treated cisplatin resistant IGROV1 CR xenografts with vehicle, And‐1 inhibitors, cisplatin or a combination of cisplatin and And‐1 inhibitor via intraperitoneal injection.
week old female BALB/c athymic nude mice (CByJ.Cg-Foxn1nu/J, weighting 20-25g, from the Jackson
Laboratory) were inoculated subcutaneously by injecting the OC cells, cisplatin resistant OC cells or
breast cancer cells suspended in 100 µl ice-cold Matrigel/PBS (1:1, V:V; 5 x 10^6/mouse) into the dorsal
flank of each mouse. When the average tumor volume reached 100-150 mm3, the mice were randomized
into subsequent experiment groups. For tumors treated with CH3 only, CH3 was given at 0 mg/kg, 20
mg/kg and 40 mg/kg twice a week for three weeks.
were then given intraperitoneally at 8 mg/kg, 20 mg/kg and 2 mg/kg respectively twice a week for three
During the drug treatment, the tumor volume and body weight were measured.

IGROV1 CR cells = test: Clonogenic assay, combination with cisplatin; assay type: cell-based, human
Protocol: Synergy of each combination was indicated as combination index (CI) values. […] (C) Tumors of IGROV1 CR xenograft treated with control (vehicle), cisplatin (8 mg/kg/day intraperitoneally), CH3 (20 mg/kg/3days intraperitoneally), or a combination of CH3 and cisplatin for 3 weeks. Ruler scale is in centimeters. (D) Growth curves of IGROV1 CR xenografts. […] (E) IHC staining against And‐1 antibodies of tumor samples from four treated groups of mice. Scale bar: 50 μm. […] Ruler scale is in centimeters. (G) Growth curves of IGROV1 CR xenografts. […] (H) IHC staining against And‐1 antibodies of tumor samples from four treated groups of mice. Scale bar: 50 μm.

And‐1 = biological target: T1, And‐1 (Homo sapiens, UniProt O75717); test: Immunoblot of And‐1 expression in IGROV1 cells; assay type: cell-based; conditions: read-out: IC50, And‐1 expression
T1 construct: expressed in transfected cells
T1 sequence (O75717 1-1129): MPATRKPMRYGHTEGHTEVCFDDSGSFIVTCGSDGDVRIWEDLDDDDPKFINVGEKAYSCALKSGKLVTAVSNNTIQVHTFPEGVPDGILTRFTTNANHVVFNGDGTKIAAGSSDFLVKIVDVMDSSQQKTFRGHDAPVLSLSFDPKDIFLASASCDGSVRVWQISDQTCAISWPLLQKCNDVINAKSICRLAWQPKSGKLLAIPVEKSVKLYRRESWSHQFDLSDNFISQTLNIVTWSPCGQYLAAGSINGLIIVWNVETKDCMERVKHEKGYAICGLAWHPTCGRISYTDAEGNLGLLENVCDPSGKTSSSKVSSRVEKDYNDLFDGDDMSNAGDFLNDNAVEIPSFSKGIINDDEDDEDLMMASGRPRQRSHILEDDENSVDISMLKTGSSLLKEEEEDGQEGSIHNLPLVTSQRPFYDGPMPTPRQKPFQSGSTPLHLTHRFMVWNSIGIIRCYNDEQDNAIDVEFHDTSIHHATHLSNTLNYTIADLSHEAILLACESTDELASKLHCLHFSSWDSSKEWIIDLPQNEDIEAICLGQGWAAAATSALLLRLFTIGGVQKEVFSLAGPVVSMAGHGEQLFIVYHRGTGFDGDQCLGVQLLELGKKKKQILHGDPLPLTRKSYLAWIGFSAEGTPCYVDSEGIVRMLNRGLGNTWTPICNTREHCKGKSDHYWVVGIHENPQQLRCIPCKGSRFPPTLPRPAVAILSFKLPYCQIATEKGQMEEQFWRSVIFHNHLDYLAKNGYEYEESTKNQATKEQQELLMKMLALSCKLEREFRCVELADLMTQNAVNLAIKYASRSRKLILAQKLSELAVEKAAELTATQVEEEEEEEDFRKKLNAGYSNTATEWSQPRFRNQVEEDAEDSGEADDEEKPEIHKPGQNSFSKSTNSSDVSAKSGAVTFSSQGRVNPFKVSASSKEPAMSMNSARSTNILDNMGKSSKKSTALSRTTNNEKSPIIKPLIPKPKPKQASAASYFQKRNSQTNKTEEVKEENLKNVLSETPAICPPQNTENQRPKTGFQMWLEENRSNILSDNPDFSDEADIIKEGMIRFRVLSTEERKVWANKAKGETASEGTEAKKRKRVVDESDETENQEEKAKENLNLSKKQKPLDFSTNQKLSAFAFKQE
Text: The assay was as previously described.[45]
To evaluate whether And‐1 is required for tumor survival, we examined the dependence of a broad range of tumor cells on And‐1 by using dependency score analysis from DepMap (https://depmap.org/portal/). […] To identify And‐1 specific pharmacologic inhibitor, we established an HTS assay to identify small molecules that can inhibit And‐1 by inducing its degradation. To this end, we first established two stable cell lines, HEK293T‐And‐1‐Luc expressing And‐1 protein fused to a luciferase reporter gene, and HEK293T‐Luc expressing luciferase only (Figure 1B). HEK293T‐And‐1‐Luc cells allow us to monitor And‐1 protein levels by measuring luciferase activity in a high‐throughput manner. Using these cell lines, we conducted a screening for And‐1 inhibitors against a LOPAC small molecule library by using a quantitative HTS (qHTS) as we described previously.[46]
(A) Dependency score of WDHD1/And‐1 analyzed by DepMap. […] (B) Establishment of HEK293T‐And‐1‐Luc and HEK293T‐Luc cells for the high‐throughput screen (HTS). (C) Schematic diagram of quantitative HTS (qHTS) for And‐1 inhibitors. (D) Immunoblot analyses to detect And‐1 expression in IGROV1 cells treated with resveratrol at indicated concentrations. (E) Chemical structures of resveratrol and its three analogs as indicated. (F) Left, immunoblot analyses to detect And‐1 expression in IGROV1 cells treated with And‐1 inhibitors at the indicated concentration. Right, quantification of And‐1 expression shown in the left panel.

[2] = tested on: 60 human tumour cell lines; test: NCI-60 one-dose screen, whole panel statistics; assay type: cell-based; conditions: mean growth percentage against all 60 tumor cell lines, 10 μM
Protocol: The NCI‐60 cell line panel includes 60 human tumour cell lines. The effect of CH3 on tumour cell growth was tested at National Cancer Institute, Developmental Therapeutics Program (NCI‐DTP) by following the protocol as described previously.[47]
We next evaluate the inhibitory efficacy of CH3 against a panel of 60 human cancer cell lines at the NCI‐DTP. […] To further compare the efficacy of CH3 in the inhibition of NCI 60 cells, we examined the inhibitory effects of CH3 on 60 cells by using five doses of CH3.
FIGURE 5 The effect of CH3 treatment in the NCI‐60 human tumor cell line panel. (A) Mean graph display of NCI‐60 cell line screening data for CH3. The presented result is a one‐dose mean graph display of NCI‐60 cell line screening data for CH3 at 10 μM. The number reported for the one‐dose assay is growth relative to the no‐drug control. Bars deflecting to the right of the mean indicate relatively high sensitivity, and bars deflecting to the left of the mean indicate relatively low sensitivity to CH3. Experiments were performed at the NCI‐DTP. (B) Dose–response curves of CH3 for breast and ovarian cell lines from NCI‐60 cell line panel. All cells were tested at the NCI‐DTP in the presence of CH3 at five concentrations (0.01 μM, 0.1 μM, 1 μM, 10 μM and 100 μM). […]

OB1OCc2cc(/C=C/c3ccc(Cl)c(Cl)c3)ccc21 [CH3, (E)‐5‐(3,4‐dichlorostyryl)benzo[c][1,2]oxaborol‐1(3H)‐ol]
toxicity of combination with cisplatin: body weight and organs (heart, liver, kidney, lung) ([1]; IGROV1 CR xenograft mice, cisplatin 8 mg/kg + CH3 20 mg/kg or BZA 2 mg/kg): no obvious systemic toxicity or side effect | toxicity: body weight; H&E staining of heart, liver, kidney and lung ([1]; xenograft mice, CH3 20 or 40 mg/kg intraperitoneal): did not observe systemic toxicity or obvious side effects | synergy with cisplatin to reduce clonogenic capacity (IGROV1 CR cells): great synergy with cisplatin | DC50 (And‐1): 2080 nM | Growth Percent (Mean) [2]: 1.84%
